Experimental data as given in US7884114B2, “Compounds” (Glaxo Group Limited, priority 2007, dated 2011).
Structures can show the parent of a compound that is named as a salt. Where two headings read alike, the source gives them in different places.

Key:
[1] = biological target: T1, human H1 receptor (Homo sapiens, UniProt P35367); test: Histamine H1 functional antagonist assay (FLIPR): antagonist pA2; format: cell-based
T1 construct: expressed in transfected cells
Procedure: (§1) The human H1 receptor is cloned using known procedures described in the literature [Biochem. Biophys. Res. Commun., 201(2):894 (1994)]. Chinese hamster ovary (CHO) cells stably expressing the human H1 receptor are generated according to known procedures described in the literature [Br. J. Pharmacol., 117(6):1071 (1996)].
Histamine H1 Functional Antagonist Assay: Determination of Antagonist pA2 and Duration
The histamine H1 receptor expressing CHO cells are seeded into non-coated black-walled clear bottom 96-well tissue culture plates as described above.
Following overnight culture, growth medium is removed from each well, washed with 200 μl PBS and is replaced with 50 μl loading dye (250 μM Brilliant Black, 1 μM Fluo-4 diluted in Tyrodes buffer+probenecid (145 mM NaCl, 2.5 mM KCl, 10 mM HEPES, 10 mM D-glucose, 1.2 mM MgCl2, 1.5 mM CaCl2, 2.5 mM probenecid, pH adjusted to 7.40 with NaOH 1.0 M)). Cells are incubated for 45 min at 37° C. The loading buffer is removed and the cells are washed as above, and 90 μl of Tyrodes buffer+probenecid is added to each well. 10 μl of test compound, diluted to the required concentration in Tyrodes buffer+probenecid (or 10 μl Tyrodes buffer+probenecid as a control) is added to each well and the plate is incubated for 30 min at 37° C., 5% CO2.
The plates are then placed into a FLIPR™ (Molecular Devices, UK) to monitor cell fluorescence (λex=488 nm, λEM=540 nm) in the manner described in Sullivan et al., (In: Lambert D G (ed.), Calcium Signaling Protocols, New Jersey: Humana Press, 1999, 125-136) before and after the addition of 50 μl histamine over a concentration range of 1 mM-0.1 nM. […] The antagonist pA2 is calculated using the following standard equation: pA2=log(DR−1)−log [ B] where DR=dose ratio, defined as EC50antagonist-treated/EC50control and [B]=concentration of antagonist.

[2] = system: histamine-induced nasal congestion; test: Intranasal challenge method: whole body plethysmography, histamine-induced nasal congestion; format: in vivo, Dunkin-Hartley guinea pigs; details: for inhibition of response to histamine challenge: dosed intranasally at 1 mg/ml
Procedure: Intranasal Challenge Method: Whole Body Plethysmography
Female Dunkin-Hartley guinea pigs 150-250 g are sensitised twice daily for 5 days (week 1) with ovalbumin (OVA) and aluminium hydroxide (Al(OH)3 or Alum) in physiological saline, 25 μl/nostril. Solution is made up at 20 μg/ml OVA, 180 mg/ml Alum. During weeks 2 and 3 animals receive 25 μl/nostril of OVA (5 mg/ml) once daily. During Week 4 guinea pigs will be entered into study but are continually sensitized as per weeks 2 and 3 until the day before dosing with compound or vehicle.
(b) Compound Vehicle Pretreatment
Pretreatment with test compound is performed at various times prior to histamine challenge. Efficacy dose-response curves are determined 1 hr and/or 3 hr after dosing whereas duration of action may be studied up to 7 days post dose (for example, at 24 hours). Test compounds are formulated as solutions in 0.9% sterile saline or suspensions in 0.9% sterile saline/tween80.
Guinea pigs were anaesthetised with isoflurane (5%, 2-31/min O2), placed in a supine position, and 25 μl of test compound or vehicle dosed into each nostril using a Gilson pipette. After dosing, animals remain supine for at least 30 seconds (e.g. 60 seconds) during recovery from anaesthesia.
(c) Histamine Challenge Protocol
G. & Gelfand, E. W. (1997), Noninvasive measurement of airway responsiveness in allergic mice using barometric plethysmography., Am. J. Respir. Crit. Care Med., 156, 766-775.
After the stipulated pre-dose time has been reached, guinea pigs are re-anaesthetised with isoflurane and dosed with either 10 mM or 15 mM histamine or phosphate-buffered saline (PBS), (25 μl per nostril). […] These recordings are summed to give a cumulative AUC over 40 mins post histamine challenge for each animal. Data are analysed using ANOVA with post-hoc Fishers LSD test (general linear models, Statistica®) and finally Hochberg adjustment. Inhibition of histamine-induced congestion is determined by statistically significant differences between the mean responses of compound pre-treated groups compared to the vehicle pre-treated, histamine-challenged group.

[3] = biological target: T1, human H1 receptor; test: Histamine H1 functional antagonist assay (FLIPR): functional pKi; format: cell-based; details: CHO cells expressing human H1 receptor, histamine EC80, read-out: average pKi (pKb) at H1 (converted)
Procedure: as §1
10 μl of test compound, diluted to the required concentration in Tyrodes buffer+probenecid (or 10 μl Tyrodes buffer+probenecid as a control) is added to each well and the plate is incubated for 30 min at 37° C., 5% CO2.

[4] = biological target: T1, human H1 receptor; test: Histamine H1 functional antagonist assay: antagonist duration after washout; format: cell-based; details: at one or more time points
Procedure: The human H1 receptor is cloned using known procedures described in the literature [Biochem. Biophys. Res. Commun., 201(2):894 (1994)]. Chinese hamster ovary (CHO) cells stably expressing the human H1 receptor are generated according to known procedures described in the literature [Br. J. Pharmacol., 117(6):1071 (1996)]. […] Following the 30 min antagonist incubation period, the cells are washed two or three times with 200 μl of PBS and then 100 μl Tyrodes buffer is added to each well to initiate antagonist dissociation. […] After this period, the cells are challenged with histamine in the FLIPR™ as described above. […] The decrease in receptor occupancy over time approximates to a straight line and is analysed by linear regression. The slope of this straight line fit is used as an index of the dissociation rate of the antagonist. The dose ratios for antagonist treated cells and for antagonist treated and washed cells at each time point are used to calculate a relative dose ratio (rel DR) which is also used as an index of antagonist duration. Antagonists with long duration of action produce rel DR values close to 1, and antagonists with short duration of action produce rel DR values that approaches the dose ratio value obtained for antagonist treatment alone.

[5] = CHO cells expressing H1 receptor, FLIPR, histamine concentration response curves, read-out: average pA2 (converted)

T1 sequence (P35367 whole entry): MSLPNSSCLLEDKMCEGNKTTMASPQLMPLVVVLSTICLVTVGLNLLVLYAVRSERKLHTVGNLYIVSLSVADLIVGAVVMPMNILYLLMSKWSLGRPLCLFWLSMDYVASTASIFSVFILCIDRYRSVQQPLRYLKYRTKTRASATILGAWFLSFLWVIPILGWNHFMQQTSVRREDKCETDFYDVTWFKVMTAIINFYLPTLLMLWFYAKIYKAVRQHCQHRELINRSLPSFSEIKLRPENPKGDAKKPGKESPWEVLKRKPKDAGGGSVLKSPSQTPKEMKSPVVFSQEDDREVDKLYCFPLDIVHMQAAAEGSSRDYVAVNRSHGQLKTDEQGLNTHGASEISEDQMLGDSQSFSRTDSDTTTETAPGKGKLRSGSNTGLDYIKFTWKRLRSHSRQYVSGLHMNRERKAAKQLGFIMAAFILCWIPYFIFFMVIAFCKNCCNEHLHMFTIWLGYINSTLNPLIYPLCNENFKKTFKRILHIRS

`CCCCc1cc(OC2CCN(CCCNS(=O)(=O)C(C)C)CC2)c2ncccc2c1` [Example 19, N-(3-{4-[(6-Butyl-8-quinolinyl)oxy]-1-piperidinyl}propyl)-2-propanesulfonamide, dihydrochloride salt] gave a Kb [1, 5] of less than 1 nM.

With `CN1CCCC(n2nc(Cc3ccc(Cl)cc3)c3ccccc3c2=O)CC1` (stereo not drawn) [azelastine, reference compound] the “duration of action in intranasal challenge model” value ([2]; administered at the same concentration (1 mg/ml intranasally)) was “failed to show a similar duration of action”.

`CCCCc1cc(OC2CCN(CCCS(=O)(=O)C3CCCC3)CC2)c2ncccc2c1` [Example 8, 6-Butyl-8-({1-[3-(cyclopentylsulfonyl)propyl]-4-piperidinyl}oxy)quinoline, formate salt (1:1)] gave a Kb [1] of less than 100 nM.

`CCCCc1cc(OC2CCN(CCCCNS(=O)(=O)CC)CC2)c2ncccc2c1.Cl.Cl` [Example 23B, N-(4-{4-[(6-Butyl-8-quinolinyl)oxy]-1-piperidinyl}butyl)ethanesulfonamide, dihydrochloride salt] was tested, and the “inhibition of response to histamine challenge” value ([2]; 3 hr before histamine challenge) was “significantly (p<0.05) inhibited the response” and the “inhibition of response to histamine challenge” value ([2]; 24 hr before histamine challenge) was “significantly (p<0.05) inhibited the response”.

With `CCCCc1cc(OC2CCN(CCS(=O)(=O)C(C)(C)C)CC2)c2ncccc2c1` [Example 2, 6-Butyl-8-[(1-{2-[(1,1-dimethylethyl)sulfonyl]ethyl}-4-piperidinyl)oxy]quinoline, dihydrochloride salt] the Kb [1, 5] was less than 1 nM.

Work on `CCCCc1cc(OC2CCN(CCCCCNS(=O)(=O)CC)CC2)c2ncccc2c1` [Example 32, N-(5-{4-[(6-Butyl-8-quinolinyl)oxy]-1-piperidinyl}pentyl)ethanesulfonamide, dihydrochloride salt] yielded a Kb [1, 5] of less than 1 nM.

With `CCCCc1cc(OC2CCN(CCCNC(=O)NCCC)CC2)c2ncccc2c1` [Example 36, N-(3-{4-[(6-Butyl-8-quinolinyl)oxy]-1-piperidinyl}propyl)-N′-propylurea, dihydrochloride salt] the Kb [1] was less than 1 nM.

`CCCCc1cc(OC2CCN(CCCCNS(=O)(=O)CC3CCCCC3)CC2)c2ncccc2c1` [Example 28, N-(4-{4-[(6-Butyl-8-quinolinyl)oxy]-1-piperidinyl}butyl)-1-cyclohexyl methane sulfonamide, dihydrochloride salt] showed a Kb [1, 5] of less than 10 nM.

With `CCCCCc1cc(OC2CCN(CCCS(=O)(=O)CC)CC2)c2ncccc2c1` [Example 11, 8-({1-[3-(Ethylsulfonyl)propyl]-4-piperidinyl}oxy)-6-pentylquinoline, dihydrochloride salt] the Kb [1, 5] was less than 1 nM.

`CCCCc1cc(O[C@@H]2CCN(CCCS(=O)(=O)C(C)(C)C)C2)c2ncccc2c1` [Example 12, 6-Butyl-8-[((3R)-1-{3-[(1,1-dimethylethyl)sulfonyl]propyl}-3-pyrrolidinyl)oxy]quinoline, dihydrochloride salt] was tested, and the Kb [1, 5] was less than 100 nM.

With `CCCCc1cc(OC2CCN(CCNS(=O)(=O)c3ccccc3)CC2)c2ncccc2c1` [Example 16, N-(2-{4-[(6-Butyl-8-quinolinyl)oxy]-1-piperidinyl}ethyl)benzenesulfonamide, dihydrochloride salt] the Kb [1, 5] was less than 10 nM and the Ki [3] was less than 100 nM.

`CCCCc1cc(OC2CCN(CCCCCNS(C)(=O)=O)CC2)c2ncccc2c1` [Example 31, N-(5-{4-[(6-Butyl-8-quinolinyl)oxy]-1-piperidinyl}pentyl)methanesulfonamide, dihydrochloride salt] showed a Kb [1, 5] of less than 1 nM.

For `CCCCc1cc(OC2CCN(CCCCNS(=O)(=O)CC(C)C)CC2)c2ncccc2c1` [Example 26, N-(4-{4-[(6-Butyl-8-quinolinyl)oxy]-1-piperidinyl}butyl)-2-methyl-1-propanesulfonamide, dihydrochloride salt], the “duration of action compared with azelastine” value [4] was “longer duration of action than azelastine”.

In the case of `CCCCc1cc(OC2CCN(C3CCS(=O)(=O)C3)CC2)c2ncccc2c1` (stereo not drawn) [Example 13, 6-Butyl-8-{[1-(1,1-dioxidotetrahydro-3-thienyl)-4-piperidinyl]oxy}quinoline], the Kb [1, 5] is reported as less than 100 nM and the Ki [3] is reported as less than 100 nM.

`CCCCc1cc(OC2CCN(CCCS(C)(=O)=O)CC2)c2ncccc2c1` [Example 3, 6-Butyl-8-({1-[3-(methylsulfonyl)propyl]-4-piperidinyl}oxy)quinoline, dihydrochloride salt] showed a Kb [1, 5] of less than 10 nM.

`CCCCc1cc(OC2CCN(CCCNS(=O)(=O)CCC)CC2)c2ncccc2c1` [Example 18, N-(3-{4-[(6-Butyl-8-quinolinyl)oxy]-1-piperidinyl}propyl)-1-propanesulfonamide, dihydrochloride salt] was tested, and the Kb [1, 5] was less than 1 nM.

`CCCCc1cc(OC2CCN(CCNS(=O)(=O)CC(C)C)CC2)c2ncccc2c1` [Example 15, N-(2-{4-[(6-Butyl-8-quinolinyl)oxy]-1-piperidinyl}ethyl)-2-methyl-1-propanesulfonamide, dihydrochloride salt] gave a Kb [1, 5] of less than 10 nM and a Ki [3] of less than 100 nM.
